Measurements reported in PubChem BioAssay (NCI).
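Following 48 hours of exposure in 96-well plates, responses at five concentrations were used to interpolate endpoints linearly. Here, GI50 denotes the concentration required for 50% inhibition of growth. TGI: total growth inhibition.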 Calls of active or inactive are those of the source. No stated cut-off is given here; in the data, active means GI50 below about 0.43 µM; inactive means the rest.

Experiments:
Test in all cases: growth of human tumour cells (NCI), 48 h
[1] = tested on: 786-0 renal
[2] = tested on: SK-MEL-28 melanoma
[3] = tested on: HOP-92 NSCLC
[4] = tested on: MDA-MB-231 breast
[5] = tested on: LOX IMVI melanoma
[6] = tested on: A549 NSCLC
[7] = tested on: HL-60(TB) leukemia
[8] = tested on: U251 CNS
[9] = tested on: SK-MEL-2 melanoma

| Structure (SMILES) | TGI [1] | TGI [2] | TGI [3] | TGI [4] | TGI [5] | TGI [6] | TGI [7] | TGI [8] | outcome [1] | TGI [9] | outcome [6] | GI50 [3] |
| --- | --- | --- | --- | --- | --- | --- | --- | --- | --- | --- | --- | --- |
| O=C(C(Cl)=C(N1CCOCC1)N1CCOCC1)C(Cl)Cl | > 100 µM | > 100 µM | > 100 µM | > 100 µM | > 100 µM | > 100 µM | > 100 µM | – | – | – | – | – |
| O=c1[nH]nc(Cc2ccccc2)n1/N=C/c1ccncc1 | > 100 µM | > 100 µM | > 100 µM | > 100 µM | > 100 µM | > 100 µM | > 100 µM | > 100 µM | – | – | – | – |
| CCOC(=O)C1CCC(=O)N1C(=O)c1ccccc1 (stereo unspecified) | > 100 µM | > 100 µM | > 100 µM | > 100 µM | > 100 µM | > 100 µM | > 100 µM | > 100 µM | – | – | – | – |
| c1c2c(cc(-n3nnc4c3CCCCCC4)c1-n1nnc3c1CCCCCC3)CCCCCC2 | – | 33.9 µM | 12.6 µM | – | 26.6 µM | – | > 100 µM | 22.4 µM | inactive | 34.6 µM | inactive | – |
| CN(C)CCNC(=O)c1cccc2nc(-c3ccccc3)oc12 | – | > 100 µM | 59.4 µM | – | > 71.8 µM | > 100 µM | 96.2 µM | > 100 µM | – | > 100 µM | – | – |
| Cc1ccc(/C=C2\Cc3c(C)cc(C)cc3C2=O)c(C(=O)O)c1 | > 100 µM | > 100 µM | > 100 µM | – | 48.9 µM | > 100 µM | 65.5 µM | > 100 µM | – | 83.6 µM | – | – |
| O=C1CSC2=NC3=C(COC/C3=C\c3ccc(Br)cc3)C(c3ccc(Br)cc3)N12 (stereo unspecified) | > 100 µM | – | > 100 µM | > 100 µM | > 100 µM | – | 36.9 µM | > 100 µM | – | > 100 µM | – | – |
| Nc1nn2c(=O)c3ccccc3nc2s1 | > 100 µM | > 100 µM | > 100 µM | – | 44.7 µM | > 100 µM | – | > 100 µM | – | > 100 µM | – | – |
| CCOC(=O)c1nnsc1NN | > 100 µM | > 100 µM | > 100 µM | > 100 µM | > 100 µM | > 100 µM | > 100 µM | > 100 µM | – | > 100 µM | – | – |
| O=c1[nH]c(Nc2cccc(CO)c2)nc2nc[nH]c12 | > 100 µM | > 100 µM | > 100 µM | > 100 µM | > 100 µM | > 100 µM | > 100 µM | > 100 µM | – | > 100 µM | – | – |
| CN(C)CC1CCC(CN(C)C)C1=O (stereo unspecified) | 4.11 µM | 36.5 µM | 4.07 µM | 4.18 µM | 14.4 µM | 39 µM | – | 50.2 µM | – | 21.6 µM | – | 1.93 µM |
| C[n+]1c(-c2ccc(/C=C/C=N\NC(=O)c3ccc(C(=O)N/N=C\C=C\c4ccc(-c5cn6ccccc6[n+]5C)cc4)cc3)cc2)cn2ccccc21 | > 56.2 µM | > 100 µM | > 100 µM | > 58.8 µM | > 100 µM | > 100 µM | > 65.7 µM | > 100 µM | – | > 100 µM | – | – |
| CC(=O)OCc1c(O)c2c(c(O)c1COC(C)=O)C(=O)C=CC2=O | – | 22.8 µM | 7.24 µM | – | – | 35.9 µM | 46.7 µM | 28.5 µM | – | 8.84 µM | – | – |
| COc1ccc(N(C(=O)Nc2ccc(Cl)c(Cl)c2)C2c3cccn3C(=O)N2c2ccc(Cl)c(Cl)c2)cc1 (stereo unspecified) | > 100 µM | > 100 µM | > 100 µM | > 100 µM | > 100 µM | > 100 µM | > 100 µM | > 100 µM | – | > 100 µM | – | – |
| CC(C)(C)c1cc(C(=O)/C=C/c2ccc3c(c2)OCO3)cc(C(C)(C)C)c1O | 21 µM | > 100 µM | > 100 µM | 37.7 µM | > 55.8 µM | > 86.6 µM | 13.9 µM | 19.3 µM | – | 10.4 µM | – | – |
| CCOC(=O)c1cn2c(n1)sc1cc(Cl)cc(Cl)c12 | > 100 µM | > 100 µM | > 100 µM | > 100 µM | > 100 µM | > 100 µM | – | > 100 µM | – | > 100 µM | – | – |
| CO[C@]12C[C@H](CNC(=O)c3ccc[nH]3)O[C@H]1NC(=O)N2 | > 100 µM | – | > 100 µM | > 100 µM | > 100 µM | > 100 µM | > 100 µM | > 100 µM | – | > 100 µM | – | – |
| CCCCCCCCCc1nn2c(Cc3ccccc3)nnc2s1 | 34.7 µM | 33.8 µM | – | 54.5 µM | – | 41.5 µM | – | 36.6 µM | – | 39.3 µM | – | – |
| O=c1cc(-c2ccccc2)oc2c(-c3cc(Cl)cc4c(=O)cc(-c5ccccc5)oc34)cc(Cl)cc12 | > 100 µM | > 100 µM | – | > 100 µM | > 100 µM | > 100 µM | > 100 µM | > 100 µM | – | > 100 µM | – | – |
| C=C1c2nc3ccccc3n2C=C(c2ccc(Cl)cc2)N1c1ccc(OC)cc1 | 20.7 µM | 22.2 µM | 43.6 µM | 53.6 µM | > 100 µM | 30.4 µM | > 100 µM | 25.4 µM | – | 66.5 µM | – | – |
| N#Cc1c(-c2ccccc2)cc(-c2ccc(Cl)cc2)[nH]c1=S | > 100 µM | 80.1 µM | > 100 µM | 67.3 µM | > 100 µM | > 100 µM | > 100 µM | 48.5 µM | – | – | – | – |
| Cn1c2ccccc2c(=O)c2c(O)cc3c(c21)C=CC1(CCCCC1)O3 | > 10 µM | > 10 µM | > 10 µM | > 10 µM | > 10 µM | > 10 µM | – | > 10 µM | – | > 10 µM | – | – |
| CN(C)CCC(=O)/C=C\c1ccccc1 | 29.8 µM | 30.9 µM | 32.9 µM | – | 29.6 µM | 48.3 µM | 36.8 µM | 31.6 µM | – | – | – | – |
| O=c1[nH]c(=O)n(C2CC(O)C(CO)O2)cc1OCc1ccccc1 (stereo unspecified) | > 100 µM | > 100 µM | – | > 100 µM | > 100 µM | > 100 µM | > 100 µM | > 100 µM | – | – | – | – |
| COc1cc2c(cc1OC)-c1cc3ccccc3c(=O)n1CC2 | – | 90.5 µM | 63 µM | 43.8 µM | 27.5 µM | > 100 µM | – | 97.9 µM | – | 48.8 µM | – | – |
